Experimental data from BigSolDB 2.1.

COc1cc(-c2cc(-c3ccc(Cl)cc3)[nH]c(=O)c2C#N)ccc1O
solubility (mole fraction)
Settings	in 1,4-dioxane	in chloroform	in ethanol	in ethyl acetate	in methanol	in n-butanol	in n-propanol
298.15 K	0.00149	0.00118	0.00073	0.00123	0.000577	0.0004	0.000791
303.15 K	0.00156	0.00123	0.00077	0.00132	0.000603	0.000445	0.000836
308.15 K	0.00163	0.00129	0.00081	0.0014	0.000629	0.000489	0.000882
313.15 K	0.00172	0.00135	0.000861	0.0015	0.000653	0.000549	0.000929
318.15 K	0.00181	0.00141	0.000905	0.00159	0.000677	0.000609	0.000976
323.15 K	0.00189	0.00149	0.000948	0.00168	0.000705	0.000672	0.00102
328.15 K	0.00197	0.00157	0.001	0.00177	0.000732	0.000735	0.00107

COc1cc(-c2cc(-c3ccc(O)cc3)[nH]c(=O)c2C#N)ccc1O
solubility (mole fraction)
Settings	in 1,4-dioxane	in chloroform	in ethanol	in ethyl acetate	in methanol	in n-butanol	in n-propanol
298.15 K	0.00153	0.00123	0.000745	0.00106	0.000574	0.000511	0.000847
303.15 K	0.00161	0.0013	0.000786	0.00111	0.000605	0.000566	0.000882
308.15 K	0.00169	0.00137	0.000828	0.00117	0.000635	0.00062	0.000927
313.15 K	0.00178	0.00144	0.000876	0.00122	0.000664	0.000674	0.00098
318.15 K	0.00187	0.00151	0.000922	0.00127	0.000693	0.000728	0.00104
323.15 K	0.00195	0.00157	0.000976	0.00134	0.000724	0.000794	0.00111
328.15 K	0.00203	0.00164	0.00103	0.0014	0.000754	0.000861	0.00116

COc1cc(-c2cc(-c3ccc(F)cc3)[nH]c(=O)c2C#N)ccc1O
solubility (mole fraction)
Settings	in 1,4-dioxane	in chloroform	in ethanol	in ethyl acetate	in methanol	in n-butanol	in n-propanol
298.15 K	0.00156	0.00134	0.000762	0.00133	0.000618	0.000531	0.000864
303.15 K	0.00164	0.00139	0.000809	0.00142	0.000638	0.000589	0.000907
308.15 K	0.00173	0.00145	0.000848	0.0015	0.000658	0.000648	0.00095
313.15 K	0.00183	0.00151	0.000897	0.0016	0.000688	0.000707	0.00101
318.15 K	0.00193	0.00158	0.000946	0.00169	0.000718	0.000767	0.00108
323.15 K	0.00202	0.00167	0.001	0.00178	0.000754	0.000835	0.00113
328.15 K	0.00211	0.00176	0.00106	0.00187	0.00079	0.000903	0.00119

COc1ccc(-c2cc(-c3ccc(O)c(OC)c3)c(C#N)c(=O)[nH]2)cc1
solubility (mole fraction)
Settings	in 1,4-dioxane	in chloroform	in ethanol	in ethyl acetate	in methanol	in n-butanol	in n-propanol
298.15 K	0.00145	0.00111	0.00069	0.00107	0.000472	0.000297	0.000733
303.15 K	0.00154	0.00116	0.000724	0.00115	0.000502	0.000344	0.000782
308.15 K	0.00162	0.0012	0.000759	0.00123	0.000532	0.000389	0.000827
313.15 K	0.00171	0.00124	0.000802	0.00129	0.000562	0.000443	0.000886
318.15 K	0.0018	0.00129	0.000846	0.00136	0.000592	0.000497	0.000934
323.15 K	0.00189	0.00134	0.000899	0.00145	0.000625	0.000565	0.00098
328.15 K	0.00199	0.00138	0.000953	0.00154	0.000659	0.000633	0.00103

COc1cc(-c2cc(-c3ccc(Br)cc3)[nH]c(=O)c2C#N)ccc1O
solubility (mole fraction)
Settings	in 1,4-dioxane	in chloroform	in ethanol	in ethyl acetate	in methanol	in n-butanol	in n-propanol
298.15 K	0.0014	0.00114	0.00071	0.00109	0.000523	0.000338	0.000757
303.15 K	0.00148	0.00119	0.00075	0.00116	0.000555	0.000384	0.0008
308.15 K	0.00155	0.00123	0.000789	0.00124	0.000587	0.00043	0.000843
313.15 K	0.00163	0.00128	0.000832	0.00132	0.000615	0.000484	0.0009
318.15 K	0.0017	0.00133	0.000876	0.0014	0.000642	0.000538	0.000951
323.15 K	0.00177	0.00137	0.000919	0.00148	0.000682	0.000614	0.000997
328.15 K	0.00184	0.00142	0.000972	0.00156	0.000722	0.000691	0.00105
